Data reported in patent US8916593B2, “Alkoxy-substituted 2-aminopyridines as ALK inhibitors” (Pfizer Inc., priority 2010, dated 2014).

Key:
ALK enzyme = molecular target: T1, ALK enzyme (Homo sapiens, UniProt Q9UM73); test: ALK enzymatic activity assay 1; type: biochemical
T1 construct: purchased Invitrogen PV4185
Description: ALK Enzymatic Activity Assay 1
Compounds were added at a final concentration of 1% DMSO in half-log dilutions, starting at 20 μM final concentration. The reactions were initiated by the addition of 10 μL of peptide/ATP mix to 10 μL enzyme and 2 μL of compound in 384-well plate. […] On the 12-sipper chip, substrate and phosphorylated product were separated with an upstream voltage of −2650 V, a downstream voltage of −500 V, and a screen pressure of −1.5 psi. The relative peak heights of substrate and product were measured and ratios were calculated using HTS Well Analyzer Software version 5.2.43 from the manufacturer.

cMet enzyme = molecular target: T2, cMet enzyme (Homo sapiens, UniProt P08581); test: cMet enzymatic activity assay; type: biochemical; details: purified cMet enzyme 7.5 nM, ATP 17 μM (Km)
T2 construct: RTC Lot#032006
T2 sequence (P08581 25-1390): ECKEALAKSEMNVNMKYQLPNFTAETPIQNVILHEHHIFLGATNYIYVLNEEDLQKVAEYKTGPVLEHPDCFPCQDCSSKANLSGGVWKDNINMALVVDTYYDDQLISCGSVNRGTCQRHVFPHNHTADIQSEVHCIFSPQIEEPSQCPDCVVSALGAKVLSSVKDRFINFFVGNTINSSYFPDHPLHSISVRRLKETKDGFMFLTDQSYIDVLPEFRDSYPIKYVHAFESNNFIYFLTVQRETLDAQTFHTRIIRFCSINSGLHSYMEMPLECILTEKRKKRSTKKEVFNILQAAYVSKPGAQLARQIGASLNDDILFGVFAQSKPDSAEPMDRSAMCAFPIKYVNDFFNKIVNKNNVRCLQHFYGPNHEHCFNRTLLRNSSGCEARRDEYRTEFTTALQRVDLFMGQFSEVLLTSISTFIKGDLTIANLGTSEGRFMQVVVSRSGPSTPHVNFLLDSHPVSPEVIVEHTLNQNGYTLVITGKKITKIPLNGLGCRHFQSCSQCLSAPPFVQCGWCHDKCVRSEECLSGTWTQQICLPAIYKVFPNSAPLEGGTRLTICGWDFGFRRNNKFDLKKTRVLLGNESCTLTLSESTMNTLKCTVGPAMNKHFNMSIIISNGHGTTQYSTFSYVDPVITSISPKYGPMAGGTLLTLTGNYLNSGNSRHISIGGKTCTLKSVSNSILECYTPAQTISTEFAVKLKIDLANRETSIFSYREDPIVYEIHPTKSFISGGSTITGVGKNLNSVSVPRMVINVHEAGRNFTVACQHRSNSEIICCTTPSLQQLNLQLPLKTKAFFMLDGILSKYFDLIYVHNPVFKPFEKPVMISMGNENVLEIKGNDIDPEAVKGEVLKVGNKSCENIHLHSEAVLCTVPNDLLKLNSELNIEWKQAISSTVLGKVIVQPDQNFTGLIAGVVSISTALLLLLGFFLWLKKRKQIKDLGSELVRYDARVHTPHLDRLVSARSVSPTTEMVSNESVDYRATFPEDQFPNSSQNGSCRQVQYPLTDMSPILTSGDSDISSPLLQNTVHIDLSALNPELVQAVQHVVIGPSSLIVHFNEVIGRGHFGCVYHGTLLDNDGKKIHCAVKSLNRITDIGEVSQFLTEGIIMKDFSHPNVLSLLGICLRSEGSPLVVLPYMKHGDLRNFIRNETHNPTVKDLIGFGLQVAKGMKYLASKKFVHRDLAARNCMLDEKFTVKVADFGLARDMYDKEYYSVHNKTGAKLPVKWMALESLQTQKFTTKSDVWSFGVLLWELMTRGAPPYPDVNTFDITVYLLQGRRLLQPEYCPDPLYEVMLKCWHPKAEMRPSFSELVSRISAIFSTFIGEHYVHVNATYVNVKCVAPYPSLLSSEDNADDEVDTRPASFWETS
Description: cMet Enzymatic Activity Assay
Compounds were added at a final concentration of 2% DMSO in half-log dilutions, starting at 20 μM final concentration. The reactions were initiated by addition of 10 μL of peptide/ATP mix to 10 μL enzyme and 5 μL of compound in 384-well plate. […] Substrate and phosphorylated product were separated with an upstream voltage of −2650 V, a downstream voltage of −500V, and a screen pressure of −1.5 psi. The relative peak heights of substrate and product were measured and ratios were calculated using HTS Well Analyzer Software version 5.2.43 from the manufacturer.

[1] = molecular target: T3, human recombinant wild-type ALK kinase domain (amino acids 1093-1411) (Homo sapiens, UniProt Q9UM73); test: ALK enzyme assay 2 (microfluidic mobility shift assay); type: biochemical;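 also: kinase reaction run 1 h at room temperature, conversion quantified by electrophoretic separation of fluorescent peptide substrate from phosphorylated product, about 15-20% turnover without inhibitor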
T3 construct: ALK kinase domain (amino acids 1093-1411); made in house
T3 sequence (Q9UM73 1093-1411): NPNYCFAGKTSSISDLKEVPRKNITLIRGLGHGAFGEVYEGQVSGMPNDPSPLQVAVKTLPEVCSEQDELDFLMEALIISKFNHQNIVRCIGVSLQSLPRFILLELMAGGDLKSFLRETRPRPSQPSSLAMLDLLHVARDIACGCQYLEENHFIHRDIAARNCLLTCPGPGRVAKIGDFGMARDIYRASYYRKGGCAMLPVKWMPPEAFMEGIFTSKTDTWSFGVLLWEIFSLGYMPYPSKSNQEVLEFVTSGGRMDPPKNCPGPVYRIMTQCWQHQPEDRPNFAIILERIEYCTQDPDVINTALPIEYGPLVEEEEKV
Description: The reactions were incubated for 1 h at room temperature, stopped by the addition of 0.1 M EDTA, pH 8, and the extent of reactions (˜15-20% conversion with no inhibitor) was determined after electrophoretic separation of the fluorescently labeled peptide substrate and phosphorylated product on an LabChip EZ Reader II (Caliper Life Sciences, Hopkinton, Mass.).

[2] = molecular target: EML4-ALK wt v1 in NIH-3T3 cells (Homo sapiens, UniProt Q9UM73)
EML4-ALK wt v1 in NIH-3T3 cells, sequence (Q9UM73 with tags, fused parts or gaps): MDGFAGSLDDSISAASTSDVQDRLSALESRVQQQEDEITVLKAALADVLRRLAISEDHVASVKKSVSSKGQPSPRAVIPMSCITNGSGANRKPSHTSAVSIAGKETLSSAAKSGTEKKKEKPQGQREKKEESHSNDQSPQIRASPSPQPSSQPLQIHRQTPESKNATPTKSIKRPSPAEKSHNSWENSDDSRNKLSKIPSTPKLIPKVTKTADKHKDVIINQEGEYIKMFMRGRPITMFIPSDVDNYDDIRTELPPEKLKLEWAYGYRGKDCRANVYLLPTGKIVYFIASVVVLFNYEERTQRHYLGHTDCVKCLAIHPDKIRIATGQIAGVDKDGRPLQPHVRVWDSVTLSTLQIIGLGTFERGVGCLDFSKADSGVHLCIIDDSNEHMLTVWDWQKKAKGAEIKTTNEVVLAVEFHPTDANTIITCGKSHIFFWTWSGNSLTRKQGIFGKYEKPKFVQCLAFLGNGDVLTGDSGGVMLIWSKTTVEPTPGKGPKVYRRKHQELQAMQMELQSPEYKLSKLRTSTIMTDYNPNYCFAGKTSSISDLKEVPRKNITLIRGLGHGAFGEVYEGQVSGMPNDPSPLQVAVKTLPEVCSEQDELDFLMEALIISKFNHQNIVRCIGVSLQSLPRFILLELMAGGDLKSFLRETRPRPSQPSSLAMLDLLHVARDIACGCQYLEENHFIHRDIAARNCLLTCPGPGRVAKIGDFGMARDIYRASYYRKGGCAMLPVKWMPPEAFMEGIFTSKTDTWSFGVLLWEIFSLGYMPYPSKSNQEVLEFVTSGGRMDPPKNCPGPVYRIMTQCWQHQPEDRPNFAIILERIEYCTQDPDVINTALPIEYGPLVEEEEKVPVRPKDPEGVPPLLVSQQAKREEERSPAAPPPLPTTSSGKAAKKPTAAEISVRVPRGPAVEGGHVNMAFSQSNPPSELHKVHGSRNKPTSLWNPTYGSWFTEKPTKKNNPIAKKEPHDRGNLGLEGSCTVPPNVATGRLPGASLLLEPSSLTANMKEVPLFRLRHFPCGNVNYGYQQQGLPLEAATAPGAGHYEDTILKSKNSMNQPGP

T1 sequence (Q9UM73 19-1620): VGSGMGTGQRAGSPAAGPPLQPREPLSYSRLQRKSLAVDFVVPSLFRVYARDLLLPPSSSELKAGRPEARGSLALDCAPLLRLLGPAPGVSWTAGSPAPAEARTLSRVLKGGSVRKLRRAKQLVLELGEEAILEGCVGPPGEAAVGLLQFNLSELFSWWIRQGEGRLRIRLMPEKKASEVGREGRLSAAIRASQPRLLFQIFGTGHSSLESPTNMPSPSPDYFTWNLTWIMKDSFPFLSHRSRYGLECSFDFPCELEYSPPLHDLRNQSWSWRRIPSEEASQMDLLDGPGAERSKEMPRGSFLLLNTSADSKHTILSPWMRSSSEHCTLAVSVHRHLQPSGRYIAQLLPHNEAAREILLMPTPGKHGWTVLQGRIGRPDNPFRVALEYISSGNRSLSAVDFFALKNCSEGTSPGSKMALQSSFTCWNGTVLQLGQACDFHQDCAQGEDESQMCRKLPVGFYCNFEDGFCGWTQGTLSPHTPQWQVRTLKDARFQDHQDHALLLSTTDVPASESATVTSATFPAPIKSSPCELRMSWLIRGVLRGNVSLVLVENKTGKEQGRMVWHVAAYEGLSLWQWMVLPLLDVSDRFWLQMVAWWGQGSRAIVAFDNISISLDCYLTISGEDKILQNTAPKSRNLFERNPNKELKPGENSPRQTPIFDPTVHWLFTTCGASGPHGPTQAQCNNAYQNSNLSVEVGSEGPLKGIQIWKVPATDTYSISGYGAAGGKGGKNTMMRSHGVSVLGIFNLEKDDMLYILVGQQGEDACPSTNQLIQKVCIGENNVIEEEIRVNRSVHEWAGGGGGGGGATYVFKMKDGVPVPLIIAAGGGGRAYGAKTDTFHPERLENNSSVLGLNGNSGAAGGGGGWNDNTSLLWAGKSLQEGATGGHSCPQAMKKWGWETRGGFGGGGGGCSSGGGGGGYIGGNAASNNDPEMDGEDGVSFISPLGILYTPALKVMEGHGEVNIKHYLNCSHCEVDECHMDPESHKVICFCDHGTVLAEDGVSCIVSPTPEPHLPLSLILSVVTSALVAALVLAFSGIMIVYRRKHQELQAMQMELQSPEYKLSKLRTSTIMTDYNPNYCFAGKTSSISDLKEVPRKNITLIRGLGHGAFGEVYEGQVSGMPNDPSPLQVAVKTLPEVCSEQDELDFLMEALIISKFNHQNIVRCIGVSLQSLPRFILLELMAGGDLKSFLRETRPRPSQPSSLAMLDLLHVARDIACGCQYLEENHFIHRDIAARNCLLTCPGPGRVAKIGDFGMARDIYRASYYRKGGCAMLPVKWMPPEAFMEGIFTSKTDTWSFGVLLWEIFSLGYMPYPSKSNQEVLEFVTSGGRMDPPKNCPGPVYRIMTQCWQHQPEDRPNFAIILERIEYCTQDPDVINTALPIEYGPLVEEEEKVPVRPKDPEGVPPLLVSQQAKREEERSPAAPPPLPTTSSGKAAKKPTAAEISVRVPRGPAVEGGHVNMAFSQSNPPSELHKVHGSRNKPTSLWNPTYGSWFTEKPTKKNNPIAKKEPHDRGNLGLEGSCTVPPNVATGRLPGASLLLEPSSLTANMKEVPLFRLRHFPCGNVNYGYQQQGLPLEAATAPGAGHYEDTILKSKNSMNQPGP

| IC50 (ALK enzyme) | IC50 (cMet enzyme) | Ki [1] | IC50 [2] | SMILES |
| --- | --- | --- | --- | --- |
| 44.9 nM | 10200 nM | 0.536 nM | 33 nM | COc1ccc(F)cc1C(C)Oc1cc(-c2c(C)nn(C)c2C)cnc1N (stereo not shown) [Example 7, 3-[1-(5-fluoro-2-methoxyphenyl)ethoxy]-5-(1,3,5-trimethyl-1H-pyrazol-4-yl)pyridin-2-amine] |
| 51.7 nM | 7610 nM | 1.93 nM | 72.4 nM | COc1ccc(F)cc1C(C)Oc1cc(-c2cncc(S(C)(=O)=O)c2)cnc1N (stereo not shown) [Example 4, 5-[1-(5-fluoro-2-methoxyphenyl)ethoxy]-5′-(methylsulfonyl)-3,3′-bipyridin-6-amine] |
| 133 nM | 13200 nM | 11 nM | 672 nM | COc1ccc(F)cc1C(C)Oc1cc(-c2cc(Cl)nnc2N)cnc1N (stereo not shown) [Example 17, 4-{6-amino-5-[1-(5-fluoro-2-methoxyphenyl)ethoxy]-pyridin-3-yl}-6-chloropyridazin-3-amine] |
| 47.5 nM | > 20000 nM | 6.4 nM | 361 nM | COc1ccc(F)cc1[C@@H](C)Oc1cc(-c2ccnn2C)nnc1N [Example 56, 4-[(1R)-1-(5-fluoro-2-methoxyphenyl)ethoxy]-6-(1-methyl-1H-pyrazol-5-yl)pyridazin-3-amine] |
